In patent publication US20260049079A1, “CHIRAL SYNTHESIS OF FUSED BICYCLIC RAF INHIBITORS” (Jazz Pharmaceuticals Ireland Limited, priority 2020, published 2026):
In brackets after ≈: the same amount, converted by molar mass. Like-named read-outs stand apart in the source and are kept apart here.

How the values were obtained:
[1] = Hepatocyte Stability Assay (MLH); format: in vitro ADME; details: mouse hepatocytes, 0.5×10^6 cells/mL, 1 μM compound, 37° C.
Procedure: (§1) Hepatocyte Stability Assay
(§2) Hepatocyte stability studies were performed manually using the substrate depletion approach. Compounds were incubated at 37° C. with cryo-preserved mouse (Bioreclamation) or human (Corning) hepatocytes at a cell density of 0.5×10^6 cells/mL and a final compound concentration of 1 μM. Sampling was performed at defined timepoints and the reaction was terminated by adding to ice-cold organic solvent. Compound concentrations were determined by LC-MS/MS analysis. The natural log of the percentage of compound remaining was plotted against each time point and the slope determined. The half-life (t1/2) and CLint were calculated using Equations 1 and 3, respectively. Data analysis was performed using Excel (Microsoft, USA).
(§3) HLH (human liver hepatocytes) and MLH (mouse liver heptaocytes) stability assay results are described in Table 34C.

[2] = Plasma Protein Binding Assay (mPPB); format: in vitro ADME; details: mouse plasma, equilibrium dialysis, 5 μM, 4 hours, 37° C.
Procedure: (§4) Plasma Protein Binding Assay
(§5) The plasma protein binding was determined by the equilibrium dialysis method. A known concentration of compound (5 μM) in previously frozen human or mouse plasma (Sera Labs) was dialysed against phosphate buffer using a RED device (Life Technologies) for 4 hours at 37° C. The concentration of compound in the protein containing (PC) and protein free (PF) sides of the dialysis membrane were determined by LC-MS/MS and the % free compound was determined by equation 4. Data analysis was performed using Excel (Microsoft, USA).
(§6) hPPB (human plasma protein binding) and mPPB (mouse plasma protein binding) results are described in Table 34D.

[3] = system: BRAF monomers in A375 cells (BRAF V600E, pERK); experiment: A375 AlphaLISA SureFire pERK1/2 Cellular Assay (Monomer); format: cell-based; details: Homo sapiens
Procedure: [Worded in the source for another cell line; used here, by the source, with some conditions changed.] (§7) The human HCT-116 colorectal carcinoma cell line (ATCC CCL-247) endogenously expresses the KRAS^G13D mutation, which leads to constitutive activation of the MAP kinase pathway and phosphorylation of ERK. […] Assay read outs took place 2 or 24 hours after dosing with compounds. On the first day, HCT-116 cells were harvested, resuspended in growth medium (McCoys5A with Glutamax (Life Technologies 36600021) and 10% heat-inactivated fetal bovine serum (Sigma F9665)), and counted. Cells were plated in 100 μl per well in each well of a 96-well culture dish (Sigma CLS3598) to a final density of 30,000 (2 hr read) or 15,000 (24 hr read) cells per well and incubated over night at 37° C. and 5% CO2. On day 2, the growth medium was exchanged for dosing medium (McCoys5A with Glutamax (Life Technologies 36600021) and 1% heat-inactivated fetal bovine serum (Sigma F9665)) and the cells were dosed with compounds to produce a 10-point dose response, where the top concentration was 1 μM and subsequent concentrations were at ⅓ log dilution intervals. A matched DMSO control was included. The cells were subsequently incubated for either 2 or 24 hours at 37° C. and 5% CO2. After incubation, media was removed and the cells were incubated with lysis buffer containing phosphatase inhibitors for 15 minutes at room temperature. Cell lysates were transferred to a ½ area 96 well white Optiplate™ (Perkin Elmer 6005569) and incubated with anti-mouse IgG acceptor beads, a biotinylated anti-ERK1/2 rabbit antibody recognizing both phosphorylated and non-phosphorylated ERK1/2, a mouse antibody targeted to the Thr202/Tyr204 epitope and recognizing phosphorylated ERK proteins only, and streptavidin-coated donor beads. The biotinylated antibody binds to the streptavidin-coated donor beads and the phopsho-ERK1/2 antibody binds to the acceptor beads. Plates were read on an EnVision reader (Perkin Elmer) and excitation of the beads at 680 nm with a laser induced the release of singlet oxygen molecules from the donor beads that trigger energy transfer to the acceptor beads in close proximity, producing a signal that can be measured at […]. Both antibodies bound to phosphorylated ERK proteins, bringing the donor and acceptor beads into close proximity. All data were analyzed using the Dotmatics or GraphPad Prism software packages. Inhibition of ERK phosphorylation was assessed by determination of the absolute IC50 value, which is defined as the concentration of compound required to decrease the level of phosphorylated ERK proteins by 50% when compared to DMSO control.
A375 AlphaLISA SureFire pERK1/2 Cellular Assay (Monomer) […]

[4] = Hepatocyte Stability Assay (HLH); format: in vitro ADME; details: human hepatocytes, 0.5×10^6 cells/mL, 1 μM compound, 37° C.
Procedure: as §1, §2, §3

[5] = Microsomal Stability Assay (MLM); format: in vitro ADME; details: mouse liver microsomes, 0.5 mg/mL protein, 1 μM compound, 37° C.
Procedure: (§8) Microsomal Stability Assay
(§9) The stability studies were performed manually using the substrate depletion approach. Test compounds were incubated at 37° C. with cryo-preserved mouse or human liver microsomes (Corning) at a protein concentration of 0.5 mg·mL^−1 and a final substrate concentration of 1 μM. Aliquots were removed from the incubation at defined timepoints and the reaction was terminated by adding to ice-cold organic solvent. Compound concentrations were determined by LC-MS/MS analysis. The natural log of the percentage of compound remaining was plotted against each time point and the slope determined. The half-life (t1/2) and CLint were calculated using Equations 1 and 2, respectively. Data analysis was performed using Excel (Microsoft, USA).
(§10) HLM (human liver microsomes) and MLM (mouse liver microsomes) stability assay results are described in Table 34C.

[6] = system: RAF dimers in HCT-116 cells (Encorafenib-induced pERK signalling); experiment: HCT-116 AlphaLISA SureFire pERK1/2 Cellular Assay (Dimer); format: cell-based; details: Homo sapiens
Procedure: as §7
HCT-116 AlphaLISA SureFire pERK1/2 Cellular Assay (Dimer) […]

[7] = Microsomal Stability Assay (HLM); format: in vitro ADME; details: human liver microsomes, 0.5 mg/mL protein, 1 μM compound, 37° C.
Procedure: as §8, §9, §10

[8] = Plasma Protein Binding Assay (hPPB); format: in vitro ADME; details: human plasma, equilibrium dialysis, 5 μM, 4 hours, 37° C.
Procedure: as §4, §5, §6

[9] = system: constitutive ERK phosphorylation in WiDr cells (BRAF V600E); experiment: WiDr AlphaLISA SureFire pERK1/2 Cellular Assay; format: cell-based; details: Homo sapiens
Procedure: [Worded in the source for another cell line; used here, by the source, with some conditions changed.] as §7
WiDr AlphaLISA SureFire pERK1/2 Cellular Assay […]

[10] = system: constitutive ERK phosphorylation in HCT-116 cells (KRAS G13D); experiment: HCT-116 AlphaLISA SureFire pERK1/2 Cellular Assay; format: cell-based; details: Homo sapiens
Procedure: HCT-116 AlphaLISA SureFire pERK1/2 Cellular Assay
as §7

WiDr cells = experiment: WiDr CellTiter-Glo 3D Cell Proliferation Assay; format: cell-based; details: Homo sapiens, WiDr spheroids, read-out: 3D WiDr pGI50 (converted)
Procedure: The CellTitre Glo® reagent lyses the cells and contains luciferin and a luciferase (Ultra-Glo™ Recombinant Luciferase), which in the presence of ATP and oxygen can produce bioluminescence from luciferin. Therefore, plates were read on an EnVision reader (Perkin Elmer) and luminescence signals were recorded. Cell proliferation was determined on 4 days after dosing relative to the pre-treatment read. All data were analyzed using the Dotmatics or GraphPad Prism software packages. Inhibition of proliferation was assessed by determination of the GIso value, which was defined as the concentration of compound required to decrease the level of cell proliferation by 50% when compared to DMSO control.
The human WiDr colorectal adenocarcinoma cell line (ATCC CCL-218) endogenously expresses the BRAF^V600E mutation, which leads to enhanced survival and proliferative signaling.

FeSSIF Solubility Assay = format: physicochemical; details: fed state simulated intestinal fluid (FeSSIF), thermodynamic from solid, pH 5 acetate buffer, 37° C., read-out: FESSIF sol
Procedure: 1 mL of fed state simulated intestinal fluid (FeSSIF), prepared using FaSSIF/FeSSIF/FaSSGF powder (Biorelevant.com) and pH 5 acetate buffer, was added to 1.0 mg of compound and then incubated for 24 h (Bioshake iQ, 650 rpm, 37° C.). Following filtration under positive pressure, the concentration of compound in solution was assessed by LC-UV in comparison to the response for a calibration standard of known concentration (250 μM). FeSSIF solubility results are described in Table 34D.

HCT-116 cells = experiment: HCT-116 CellTiter-Glo 3D Cell Proliferation Assay; format: cell-based; details: Homo sapiens, HCT116 spheroids, read-out: 3D HCT116 pGI50 (converted)
Procedure: HCT-116 CellTiter-Glo 3D) Cell Proliferation Assay
On the first day, HCT-116 cells were harvested, resuspended in growth medium (McCoys5A with Glutamax (Life Technologies 36600021) with 10% heat-inactivated fetal bovine serum (Sigma F9665)), and counted. Cells were plated in 100 μl per well in each well of a Corning 7007 96-well clear round bottom Ultra-Low Attachment plate (VWR 444-1020) to a final density of 1000 cells per well. Cells were seeded for pre- and post-treatment readouts. The cells were then incubated at 37° C. and 5% CO2 for 3 days (72 hours) to allow spheroid formation. After 72 hours, the plate seeded for a pre-treatment read was removed from the incubator to allow equilibration to room temperature for 30 minutes, before CellTitre-Glo® reagent was added to each well. The plates were incubated at room temperature for 5 minutes shaking at 300 rpm, followed by an incubation of 25 minutes on the benchtop before being read on the Envision reader (Perkin Elmer) as described below. On the same day, the cells plated for the post-treatment readout were dosed with compounds to produce a 9-point dose response, where the top concentration was 15 M and following concentrations were at ½ log dilution intervals. […] Therefore, plates were read on an EnVision reader (Perkin Elmer) and luminescence signals were recorded. […]

[11] = A-375, 1 h, read-out: PERK A375 mono (1 hr) plC50
[12] = HCT-116, 1 h, read-out: PERK HCT116 dimer (1 hr) plC50
[13] = WiDr, 2 h, read-out: PERK WiDr (2 hr) Abs plC50
[14] = HCT-116, 2 h, read-out: PERK HCT116 (2 hr) Abs plC50
[15] = HCT-116, 24 h, read-out: pERK HCT116 (24 hr) Abs plC50

SMILES | hepatocyte CLint at 1 µM [1] | mPPB (% free) [2] | IC50 [3, 11] | hepatocyte CLint at 1 µM [4] | microsomal CLint at 1 µM [5] | IC50 [6, 12] | microsomal CLint at 1 µM [7] | hPPB (% free) [8] | IC50 [9, 13] | IC50 [10, 14] | IC50 [10, 15] | IC50 ([3]; A-375, A375 cells, BRAF monomer, 1 hr incubation, read-out: PERK A375 mono (1 hr) plC50 (converted)) | IC50 ([6]; HCT-116, HCT116 cells, RAF dimer, 1 hr, read-out: PERK HCT116 dimer (1 hr) plC50 (converted)) | IC50 ([9]; WiDr cells, 2 hr, absolute pIC50, read-out: PERK WiDr (2 hr) Abs plC50 (converted)) | IC50 ([10]; HCT-116, HCT116 cells, 2 hr, absolute pIC50, read-out: PERK HCT116 (2 hr) Abs plC50 (converted)) | IC50 ([10]; HCT-116, HCT116 cells, 24 hr, absolute pIC50, read-out: pERK HCT116 (24 hr) Abs plC50 (converted)) | GI50 (WiDr cells) | solubility thermodynamic at 24 h (FeSSIF Solubility Assay) | GI50 (HCT-116 cells)
O=C1CCc2c(Oc3ccc4c(c3)CC(c3ncc(-c5ccc(F)cc5)[nH]3)CO4)ccnc2N1 (racemic) [A-rac] | 23.4 µL/min/1e6 cells | 1.8 % free | 55 nM | 4.6 µL/min/1e6 cells | 30.6 µL/min/mg | 49 nM | 26.9 µL/min/mg | 0.5 % free | 56.2 nM | 74.1 nM | 87.1 nM | – | – | – | – | – | – | – | –
O=C1CCc2c(Oc3ccc4c(c3)CC(c3nc(-c5cccs5)c[nH]3)CO4)ccnc2N1 (racemic) [B-rac] | – | 0.7 % free | – | 11.5 µL/min/1e6 cells | 58.8 µL/min/mg | – | 60.1 µL/min/mg | 0.7 % free | – | – | – | 49 nM | 28.2 nM | 44.7 nM | 19.1 nM | 24 nM | – | – | –
O=C1CCc2c(Oc3ccc4c(c3)C[C@@H](c3nc(-c5ccc(F)cc5)c[nH]3)CO4)ccnc2N1 (single isomer, unassigned) [Compound A-1] | 11 µL/min/1e6 cells | 0.8 % free | 30.9 nM | 26.8 µL/min/1e6 cells | 16 µL/min/mg | 40.7 nM | 21.7 µL/min/mg | 0.5 % free | 45.7 nM | 49 nM | 95.5 nM | – | – | – | – | – | 52.5 nM | 9.9 µg/mL (≈ 21.7 µM) | 40.7 nM
O=C1CCc2c(Oc3ccc4c(c3)C[C@H](c3nc(-c5ccc(F)cc5)c[nH]3)CO4)ccnc2N1 (single isomer, unassigned) [Compound A-2] | 12.5 µL/min/1e6 cells | 0.9 % free | 275 nM | 11.4 µL/min/1e6 cells | 80.1 µL/min/mg | 35.5 nM | 11.8 µL/min/mg | 0.7 % free | 162 nM | 69.2 nM | 115 nM | – | – | – | – | – | 537 nM | 9.4 µg/mL (≈ 20.6 µM) | 263 nM
